Source: patent US9427433B2, “Methods and compositions for enhancing fertility and/or inhibiting pregnancy failure and restoring glucose tolerance” (Queen's University at Kingston, priority 2011, dated 2016)

Columns and labels:
[1] = tested on: 60% high fat fed NZO or DIO mice; assay: Body weight gain and visceral fat in high fat fed mice; assay type: in vivo, mouse
Method: Twenty NZO and DIO/B6 female mice were maintained on a high fat diet consisted of 60% kcal fat, 20% kcal protein and 20% kcal carbohydrate, with a total energy mass of 5.24 kcal/gm (D12492, Research Diets Inc.; […] Tacrolimus (Prograf (5 mg/ml), Astellas) was administered subcutaneously in a dose of 0.1 mg/kg q2d in 0.2 ml saline for three weeks to the obese and glucose intolerant NZO and DIO mice starting at the age of 10 weeks after which animals were mated to males of the same strain and pregnancy was dated from the morning of the positive detection of vaginal (copulation) plug. See FIG. 2. Facial (mandibular) venous blood samples were collected from treated animals at 24 and 48 hours between injections and at pregnancy days 0.5, 2.5, 4.5, 6.5, 8.5, 10.5, 12.5, 14.5, 16.5 and 18.5, respectively, following a standard procedure for facial bleed in mice (Golde et al. Lab Anim (NY) 2005 34:39-43). A lean cohort of control B6 and BALBc mice was fed with a regular 10 kcal % control chow diet containing the same protein content as the high fat diet with a total energy mass of 3.1 kcal/g (D12450Bi, Cedarlane, Ontario).

[2] = tested on: NZO mice fed a high fat diet; assay: Fasting serum glucose, fasting serum insulin and glucose tolerance, comparison of macrolides; assay type: in vivo, mouse; details: vs vehicle
Method: Female mice were administered tacrolimus (0.1 mg/kg or 0.05 mg/kg, n=6/group), vehicle (n=10), pimecrolimus (0.1 mg/kg, n=6) or sirolimus (0.1 mg/kg, n=6) subcutaneously every other day for 3 weeks.
For the comparative evaluation of other macrolide drugs to tacrolimus, mice starting at 7 weeks of age were maintained on the high fat diet for a total of 13 weeks of study period. Mice were entered into the experiments when determined to be glucose intolerant as described above. Methods of drug administration and other experimental methods were as described above.
Glucose Tolerance Test (GTT): was performed according to standard protocol (Ayala et al 2010). Briefly, basal glucose levels were measured for conscious mice individually caged in 1000 cc plastic mouse caging using a one-touch ultra glucose strips and meter (Acqui-check Aviva, Roche, Montreal, Canada) and approximately 30 microliters of blood obtained via tail venipuncture prior to fasting for six hours in cages equipped with hardwood bedding. Fasting blood glucose was recorded at the end of the six hours fasting period. Mice were then tested for oral glucose tolerance (OGTT) or for insulin sensitivity (Si). For OGTT alert mice were then given 20% D-glucose (2 g/kg body weight) sterile syrup administered orally. For Si experiments mice were given 20% D-glucose (2 g/kg body weight) sterile syrup by intraperitoneal administration through a 1 ml D29 gage “½” insulin syringe (Fisher Scientific, Montreal, Canada). Then after, blood glucose was recorded at 15, 30, 45, 60, 90 and 120 minutes respectively. For Si experiments blood glucose was determined only at 15 minutes. Glucose tolerance graphs were generated by blotting mean±standard error of the mean (SEM) of the recorded glucose data per mouse per minute collection time. One way analysis of variance (ANOVA) followed by student t-test was performed to determine alpha values for statistical differences among mean blood glucose values across experimental mice groups.
Fasting immuno-reactive mouse insulin levels were quantitatively determined in citrated platelet-free plasma samples obtained from 6 hours-fasting mice using an Ultrasensitive mouse Insulin Eliza kit (#90080, Crystal chem., IL, USA) according to the manufacturer instructions. Briefly, platelet-free plasma were isolated from freshly obtained citrated whole blood samples of fasting mice and the provided insulin standards were incubated overnight on a shaking platform at 4 C^0 in a 96 wells plate coated with Guinea pig anti-insulin. Afterwards, unbound sample materials were thoroughly washed with the supplied wash buffers and the bound guinea pig anti-insulin/mouse insulin complex immobilized to the microplate wells were incubated with Horseradish peroxidase (HRP)-conjugated anti-insulin antibody for 40 minutes at room temperature with continuous agitation. Excess unbound HRP-conjugated anti-insulin antibodies were then washed excessively with wash buffers and the HRP-mediated color reaction was developed with the addition of 3,3′,5,5′ tetramethylbenzidine (TMB) substrate solution. The amount of insulin (ng/ml) present in the test samples were then measured via interpolation using the standard curve generated by plotting absorbance (at A^0450-A^0635) versus the corresponding concentration of a wide range (0.1-12.8 ng/ml) of mouse insulin standards according to the provider's instructions. Graphic representation of differences in mean±sem of plasma insulin among different groups of mice were blotted using Prism5 (La Jolla, Calif., USA) software and statistically significant differences (at 95% confidence) were calculated for the different test groups of mice using one way ANOVA followed by Bonferroni modified student t-test comparing differences between individual experimental groups.

[3] = tested on: patients with type I diabetes; details: 0.15 mg/kg BID; cited from earlier work
[4] = 0.1 mg/kg s.c. every other day for 3 weeks

**Q.** What does the source list for `C=CC[C@@H]1/C=C(\C)C[C@H](C)C[C@H](OC)[C@H]2O[C@@](O)(C(=O)C(=O)N3CCCC[C@H]3C(=O)O[C@H](/C(C)=C/[C@@H]3CC[C@@H](O)[C@H](OC)C3)[C@H](C)[C@@H](O)CC1=O)[C@H](C)C[C@@H]2OC` [tacrolimus]?
**A.** body weight gain ([1]; after the initial administration, FIG. 19B): prevented body weight gain for seven consecutive weeks; mass of the visceral fat ([1]; all treated mice): significantly lower; fasting basal serum glucose [2, 4]: normalized fasting basal serum glucose concentrations; fasting basal serum insulin [2, 4]: significantly reduced fasting basal serum insulin concentrations; insulin secretion in response to a hyperglycemic challenge ([2]; tacrolimus 0.1 or 0.05 mg/kg, pimecrolimus 0.1 mg/kg, sirolimus 0.1 mg/kg s.c. every other day for 3 weeks): significantly improved insulin secretion; outcome of clinical study in type I diabetes [3]: inconclusive
